The source of these data is ChEMBL document CHEMBL1150976, “The selectivity of protein kinase inhibitors: a further update” (Biochem J, 2007).

The target of test [1] is Myosin light chain kinase, smooth muscle (Homo sapiens, UniProt Q15746). The test can be described thus: Inhibition of SmMLCK in the presence of 50uM ATP.
The target in test [2] is Proto-oncogene tyrosine-protein kinase LCK (Mus musculus, UniProt P06240). Put plainly: Inhibition of Lck in the presence of 50uM ATP.
Test [3] has as its target Proto-oncogene tyrosine-protein kinase Src (Gallus gallus, UniProt P00523). The test can be described thus: Inhibition of Src in the presence of 50uM ATP.
The nature of test [4]: Inhibition of AMPK in the presence of 50uM ATP. Also on record: species or system Rattus norvegicus.
The target in another test is Aurora kinase B (Homo sapiens, UniProt Q96GD4). The test can be described thus: Inhibition of Aurora B in the presence of 20uM ATP.
Test [5] has as its target Serine/threonine-protein kinase 3 (Homo sapiens, UniProt Q13188). Put plainly: Inhibition of MST2 in the presence of 50uM ATP.
Test [6] deals with Serine/threonine-protein kinase BRSK2 (Homo sapiens, UniProt Q8IWQ3). The test can be described thus: Inhibition of BRSK2 in the presence of 50uM ATP.
A further test has as its target Aurora kinase C (Homo sapiens, UniProt Q9UQB9). The test can be described thus: Inhibition of Aurora C in the presence of 5uM ATP.
For test [7], the target named is Serine/threonine-protein kinase D1 (Homo sapiens, UniProt Q15139). The test can be described thus: Inhibition of PKD1 in the presence of 50uM ATP.
In test [8] the target is T1, Receptor-interacting serine/threonine-protein kinase 2 (Homo sapiens, UniProt O43353). Put plainly: Inhibition of RIP2 in the presence of 100uM ATP.
Test [9] has as its target T1, Receptor-interacting serine/threonine-protein kinase 2. Put plainly: Percentage RIP2 activity remaining in the presence of 10uM inhibitor. Conditions: filed as antagonist.
The target in test [10] is Mitogen-activated protein kinase 8 (Homo sapiens, UniProt P45983, M108A). The test can be described thus: Inhibition of JNK-M108A in the presence of 20uM ATP.
The target in test [11] is Mitogen-activated protein kinase 8 (Homo sapiens, UniProt P45983, M108G). Put plainly: Inhibition of JNK-M108G in the presence of 20uM ATP.
The target of test [12] is cAMP-dependent protein kinase catalytic subunit alpha (Homo sapiens, UniProt P17612). Put plainly: Inhibition of PKA in the presence of 20uM ATP.
Test [13] deals with Tyrosine-protein kinase CSK (Homo sapiens, UniProt P41240). The test can be described thus: Inhibition of CSK in the presence of 20uM ATP.
In test [14] the target is T2, Cyclin-G-associated kinase (Homo sapiens) (UniProt O14976).
T2 sequence (whole entry): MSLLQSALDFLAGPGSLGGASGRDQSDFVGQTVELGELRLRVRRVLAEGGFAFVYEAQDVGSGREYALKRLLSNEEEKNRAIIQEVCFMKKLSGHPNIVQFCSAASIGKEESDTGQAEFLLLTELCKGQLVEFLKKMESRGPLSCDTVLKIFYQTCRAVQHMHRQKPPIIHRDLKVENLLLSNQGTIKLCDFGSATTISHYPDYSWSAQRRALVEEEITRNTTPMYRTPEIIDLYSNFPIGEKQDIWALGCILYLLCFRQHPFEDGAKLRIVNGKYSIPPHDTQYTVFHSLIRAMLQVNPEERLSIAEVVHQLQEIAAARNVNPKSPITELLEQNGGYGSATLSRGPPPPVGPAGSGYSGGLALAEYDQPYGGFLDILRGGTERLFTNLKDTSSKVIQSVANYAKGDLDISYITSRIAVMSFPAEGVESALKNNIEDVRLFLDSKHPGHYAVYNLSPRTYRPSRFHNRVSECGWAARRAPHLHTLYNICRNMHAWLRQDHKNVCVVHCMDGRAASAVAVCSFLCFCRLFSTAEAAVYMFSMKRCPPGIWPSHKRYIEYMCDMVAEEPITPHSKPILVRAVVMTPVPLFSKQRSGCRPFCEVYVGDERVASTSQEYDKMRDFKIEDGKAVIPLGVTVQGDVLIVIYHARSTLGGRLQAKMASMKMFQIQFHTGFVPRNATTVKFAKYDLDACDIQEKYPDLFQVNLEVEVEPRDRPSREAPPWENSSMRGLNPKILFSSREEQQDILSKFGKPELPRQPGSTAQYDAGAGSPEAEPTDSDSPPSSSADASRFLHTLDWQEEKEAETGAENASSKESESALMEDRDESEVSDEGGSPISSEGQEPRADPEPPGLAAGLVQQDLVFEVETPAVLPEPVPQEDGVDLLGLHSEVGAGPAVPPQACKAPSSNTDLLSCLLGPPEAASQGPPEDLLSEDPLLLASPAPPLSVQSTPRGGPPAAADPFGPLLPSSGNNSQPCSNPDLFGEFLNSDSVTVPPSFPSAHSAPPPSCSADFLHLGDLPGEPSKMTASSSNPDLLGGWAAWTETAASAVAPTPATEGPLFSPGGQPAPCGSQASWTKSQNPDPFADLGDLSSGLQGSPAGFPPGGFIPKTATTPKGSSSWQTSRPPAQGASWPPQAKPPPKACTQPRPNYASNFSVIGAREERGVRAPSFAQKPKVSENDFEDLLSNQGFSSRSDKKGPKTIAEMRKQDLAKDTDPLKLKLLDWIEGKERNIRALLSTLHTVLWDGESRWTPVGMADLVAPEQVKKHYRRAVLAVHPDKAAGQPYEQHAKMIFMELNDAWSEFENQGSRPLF
Put plainly: Percentage GAK activity remaining in the presence of 1uM inhibitor. Conditions: filed as antagonist.

For test [15], the target named is T1, Receptor-interacting serine/threonine-protein kinase 2. The test can be described thus: Percentage RIP2 activity remaining in the presence of 1uM inhibitor. Conditions: filed as antagonist.
For test [16], the target named is T2, Cyclin-G-associated kinase (Homo sapiens). Put plainly: Percentage GAK activity remaining in the presence of 10uM inhibitor. Conditions: filed as antagonist.
Test [17] deals with HEK293. Put plainly: Inhibition of PKB-S473 phosphorylation in IGF-1 treated HEK293 cells at 0.5uM. It is filed as functional, cell-based. Conditions: Homo sapiens, filed as antagonist.
Test [18] relates to HEK293. Put plainly: Inhibition of CHK2-T68 phosphorylation in MMS treated HEK293 cells at 0.5uM. In kind it is functional, cell-based. Conditions: Homo sapiens.
Test [19] deals with HEK293. Put plainly: Inhibition of CHK1-S345 phosphorylation in MMS treated HEK293 cells at 0.5uM. It is filed as functional, cell-based. Conditions: Homo sapiens.
Test [20] deals with T3, Serine/threonine-protein kinase pim-3 (Homo sapiens, UniProt Q86V86). The test can be described thus: Inhibition of PIM3 in the presence of 20uM ATP.
Test [21] concerns the target Serine/threonine-protein kinase PLK1 (Homo sapiens, UniProt P53350). The test can be described thus: Inhibition of PLK1 in the presence of 5uM ATP.
Test [22] deals with Serine/threonine-protein kinase pim-1 (Homo sapiens, UniProt P11309). Put plainly: Inhibition of PIM1 in the presence of 20uM ATP.
The target of test [23] is Serine/threonine-protein kinase pim-2 (Homo sapiens, UniProt Q9P1W9). Put plainly: Inhibition of PIM2 in the presence of 5uM ATP.
Test [24] has as its target Mitogen-activated protein kinase 14 (Homo sapiens, UniProt Q16539).
For test [25], the target named is T3, Serine/threonine-protein kinase pim-3. Put plainly: Inhibition of PIM3 in the presence of 100uM ATP.
The target of another test is Casein kinase II (Homo sapiens, UniProt P19784+P67870+P68400). Put plainly: Inhibition of CK2 in the presence of 5uM ATP. In kind it is protein-complex assay.
Test [26] has as its target Dual specificity tyrosine-phosphorylation-regulated kinase 2 (Homo sapiens, UniProt Q92630). The test can be described thus: Inhibition of DYRK2 in the presence of 50uM ATP.
The target in test [27] is Mitogen-activated protein kinase 8 (Homo sapiens, UniProt P45983). The test can be described thus: Inhibition of JNK1 in the presence of 20uM ATP.
Test [28] deals with T3, Serine/threonine-protein kinase pim-3. The test can be described thus: Inhibition of PIM3 in the presence of 5uM ATP.
The target of test [29] is Glycogen synthase kinase-3 beta (Homo sapiens, UniProt P49841). The test can be described thus: Inhibition of GSK3-beta in the presence of 20uM ATP.
Test [30] deals with Mitogen-activated protein kinase 9 (Homo sapiens, UniProt P45984). The test can be described thus: Inhibition of JNK2 in the presence of 20uM ATP.
The target of test [31] is Dual specificity tyrosine-phosphorylation-regulated kinase 3 (Homo sapiens, UniProt O43781). The test can be described thus: Inhibition of DYRK3 in the presence of 5uM ATP.
For test [32], the target named is Serine/threonine-protein kinase Sgk1 (Homo sapiens, UniProt O00141). Put plainly: Inhibition of SGK1 in the presence of 20uM ATP.
In test [33] the target is Casein kinase I isoform delta (Homo sapiens, UniProt P48730).

What is called IC50 is the concentration that gives 50% inhibition.

Activity calls are given as the source filed them. No cut-off for these calls is given here.

Sequence of Proto-oncogene tyrosine-protein kinase LCK (P06240 whole entry): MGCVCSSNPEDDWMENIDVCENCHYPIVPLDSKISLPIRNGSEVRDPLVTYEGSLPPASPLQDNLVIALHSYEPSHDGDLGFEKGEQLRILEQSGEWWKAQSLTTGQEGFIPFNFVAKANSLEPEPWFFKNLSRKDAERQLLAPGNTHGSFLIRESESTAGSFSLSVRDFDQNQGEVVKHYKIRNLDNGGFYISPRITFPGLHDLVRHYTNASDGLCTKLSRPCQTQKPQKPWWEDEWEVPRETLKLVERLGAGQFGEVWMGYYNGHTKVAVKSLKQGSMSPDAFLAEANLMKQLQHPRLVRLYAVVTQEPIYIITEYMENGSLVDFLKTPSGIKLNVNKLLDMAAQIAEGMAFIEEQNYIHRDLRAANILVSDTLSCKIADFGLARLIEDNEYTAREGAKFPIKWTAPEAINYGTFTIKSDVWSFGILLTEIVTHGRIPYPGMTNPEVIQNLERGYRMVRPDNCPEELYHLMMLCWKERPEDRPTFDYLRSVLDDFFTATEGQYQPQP
T1 sequence (O43353 whole entry): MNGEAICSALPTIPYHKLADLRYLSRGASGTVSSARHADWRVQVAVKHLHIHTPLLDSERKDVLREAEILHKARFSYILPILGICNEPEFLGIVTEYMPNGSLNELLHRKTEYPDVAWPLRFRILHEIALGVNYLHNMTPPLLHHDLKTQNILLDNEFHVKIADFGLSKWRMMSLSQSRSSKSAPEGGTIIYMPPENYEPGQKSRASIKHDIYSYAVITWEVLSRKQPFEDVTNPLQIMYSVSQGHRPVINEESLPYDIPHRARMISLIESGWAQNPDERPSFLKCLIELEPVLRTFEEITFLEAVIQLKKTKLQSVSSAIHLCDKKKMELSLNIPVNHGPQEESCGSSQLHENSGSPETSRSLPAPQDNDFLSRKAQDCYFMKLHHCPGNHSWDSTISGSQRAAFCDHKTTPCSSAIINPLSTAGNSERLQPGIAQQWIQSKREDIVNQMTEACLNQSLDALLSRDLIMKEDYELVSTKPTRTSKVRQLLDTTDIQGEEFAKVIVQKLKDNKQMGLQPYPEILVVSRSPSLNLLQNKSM
Sequence of Serine/threonine-protein kinase D1 (Q15139 whole entry): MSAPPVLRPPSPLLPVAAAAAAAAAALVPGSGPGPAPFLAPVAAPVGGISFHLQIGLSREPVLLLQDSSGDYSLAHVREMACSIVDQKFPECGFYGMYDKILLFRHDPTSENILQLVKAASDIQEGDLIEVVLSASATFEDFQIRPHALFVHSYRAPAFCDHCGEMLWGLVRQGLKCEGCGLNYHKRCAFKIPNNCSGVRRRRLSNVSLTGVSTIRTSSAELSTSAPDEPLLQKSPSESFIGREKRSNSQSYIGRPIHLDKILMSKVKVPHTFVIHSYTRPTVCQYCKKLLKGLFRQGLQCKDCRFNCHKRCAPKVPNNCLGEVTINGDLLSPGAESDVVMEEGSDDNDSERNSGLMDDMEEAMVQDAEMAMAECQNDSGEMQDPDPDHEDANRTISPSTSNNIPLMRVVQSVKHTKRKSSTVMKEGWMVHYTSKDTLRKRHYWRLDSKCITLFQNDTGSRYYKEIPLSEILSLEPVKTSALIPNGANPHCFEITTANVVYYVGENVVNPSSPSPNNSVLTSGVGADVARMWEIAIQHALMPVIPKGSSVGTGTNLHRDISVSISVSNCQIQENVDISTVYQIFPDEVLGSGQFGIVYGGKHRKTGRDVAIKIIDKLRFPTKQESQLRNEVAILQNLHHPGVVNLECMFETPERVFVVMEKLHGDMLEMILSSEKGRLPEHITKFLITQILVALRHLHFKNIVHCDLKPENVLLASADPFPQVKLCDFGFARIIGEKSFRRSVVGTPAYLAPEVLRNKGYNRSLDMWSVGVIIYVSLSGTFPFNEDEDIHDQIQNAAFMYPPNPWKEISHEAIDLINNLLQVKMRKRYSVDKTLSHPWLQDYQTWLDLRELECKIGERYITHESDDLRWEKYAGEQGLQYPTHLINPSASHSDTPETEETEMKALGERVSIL
Sequence of Mitogen-activated protein kinase 8 (Homo sapiens, UniProt P45983, M108G) (P45983 whole entry M108G): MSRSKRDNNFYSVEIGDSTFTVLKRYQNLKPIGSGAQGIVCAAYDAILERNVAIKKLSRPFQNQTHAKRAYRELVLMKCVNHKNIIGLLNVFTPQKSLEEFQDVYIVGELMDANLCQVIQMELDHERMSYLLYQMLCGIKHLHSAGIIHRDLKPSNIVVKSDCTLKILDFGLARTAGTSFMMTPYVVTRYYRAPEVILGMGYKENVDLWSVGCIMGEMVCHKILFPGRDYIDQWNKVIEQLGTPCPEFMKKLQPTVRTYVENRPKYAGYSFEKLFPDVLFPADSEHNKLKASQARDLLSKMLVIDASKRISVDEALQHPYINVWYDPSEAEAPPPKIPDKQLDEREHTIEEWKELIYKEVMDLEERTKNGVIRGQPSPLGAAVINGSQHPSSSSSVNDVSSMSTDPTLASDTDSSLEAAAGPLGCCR
Sequence of Dual specificity tyrosine-phosphorylation-regulated kinase 2 (Q92630 whole entry): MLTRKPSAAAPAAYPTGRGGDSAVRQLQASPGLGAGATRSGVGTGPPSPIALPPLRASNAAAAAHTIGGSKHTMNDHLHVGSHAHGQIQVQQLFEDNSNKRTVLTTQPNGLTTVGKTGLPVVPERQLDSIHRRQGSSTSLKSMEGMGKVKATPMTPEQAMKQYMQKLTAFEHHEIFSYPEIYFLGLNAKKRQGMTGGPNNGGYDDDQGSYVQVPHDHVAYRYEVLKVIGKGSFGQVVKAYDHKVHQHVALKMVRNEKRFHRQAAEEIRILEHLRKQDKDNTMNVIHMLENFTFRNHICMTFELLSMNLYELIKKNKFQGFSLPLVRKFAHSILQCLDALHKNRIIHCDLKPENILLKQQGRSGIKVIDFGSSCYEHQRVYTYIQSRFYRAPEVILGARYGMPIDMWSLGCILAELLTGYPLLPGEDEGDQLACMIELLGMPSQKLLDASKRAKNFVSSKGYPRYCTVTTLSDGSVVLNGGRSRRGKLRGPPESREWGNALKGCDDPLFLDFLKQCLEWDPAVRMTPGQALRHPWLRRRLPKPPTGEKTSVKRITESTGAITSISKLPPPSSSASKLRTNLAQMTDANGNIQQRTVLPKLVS
Sequence of Mitogen-activated protein kinase 8 (Homo sapiens, UniProt P45983, M108A) (P45983 whole entry M108A): as the sequence (P45983 whole entry M108G) above, with G108A counted along it
Sequence of Serine/threonine-protein kinase pim-1 (P11309 whole entry): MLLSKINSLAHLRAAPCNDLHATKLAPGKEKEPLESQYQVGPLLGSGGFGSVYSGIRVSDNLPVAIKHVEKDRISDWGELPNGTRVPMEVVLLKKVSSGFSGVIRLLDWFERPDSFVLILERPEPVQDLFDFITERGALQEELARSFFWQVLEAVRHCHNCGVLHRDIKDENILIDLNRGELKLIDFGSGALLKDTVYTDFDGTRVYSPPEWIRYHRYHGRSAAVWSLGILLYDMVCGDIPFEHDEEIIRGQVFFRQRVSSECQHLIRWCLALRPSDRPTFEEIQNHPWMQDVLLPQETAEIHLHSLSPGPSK
Sequence of Aurora kinase B (Q96GD4 whole entry): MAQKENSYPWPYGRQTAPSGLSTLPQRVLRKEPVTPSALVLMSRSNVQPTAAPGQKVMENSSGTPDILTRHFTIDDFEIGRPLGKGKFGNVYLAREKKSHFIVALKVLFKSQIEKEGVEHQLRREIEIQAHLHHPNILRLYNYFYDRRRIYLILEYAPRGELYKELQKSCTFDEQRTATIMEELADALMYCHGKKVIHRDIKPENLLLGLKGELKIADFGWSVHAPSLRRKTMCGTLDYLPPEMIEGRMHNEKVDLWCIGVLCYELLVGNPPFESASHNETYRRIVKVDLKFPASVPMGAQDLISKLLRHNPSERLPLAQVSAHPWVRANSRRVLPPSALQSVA
Sequence of Serine/threonine-protein kinase pim-2 (Q9P1W9 whole entry): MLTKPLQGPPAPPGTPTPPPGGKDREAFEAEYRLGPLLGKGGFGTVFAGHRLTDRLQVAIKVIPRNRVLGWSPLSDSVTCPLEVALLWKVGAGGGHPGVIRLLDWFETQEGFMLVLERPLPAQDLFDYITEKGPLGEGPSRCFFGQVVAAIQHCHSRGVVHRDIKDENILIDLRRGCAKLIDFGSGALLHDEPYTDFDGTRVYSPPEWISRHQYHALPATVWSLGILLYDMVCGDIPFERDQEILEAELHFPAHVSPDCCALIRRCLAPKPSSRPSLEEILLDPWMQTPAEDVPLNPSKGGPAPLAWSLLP
Sequence of Serine/threonine-protein kinase Sgk1 (O00141 whole entry, canonical isoform): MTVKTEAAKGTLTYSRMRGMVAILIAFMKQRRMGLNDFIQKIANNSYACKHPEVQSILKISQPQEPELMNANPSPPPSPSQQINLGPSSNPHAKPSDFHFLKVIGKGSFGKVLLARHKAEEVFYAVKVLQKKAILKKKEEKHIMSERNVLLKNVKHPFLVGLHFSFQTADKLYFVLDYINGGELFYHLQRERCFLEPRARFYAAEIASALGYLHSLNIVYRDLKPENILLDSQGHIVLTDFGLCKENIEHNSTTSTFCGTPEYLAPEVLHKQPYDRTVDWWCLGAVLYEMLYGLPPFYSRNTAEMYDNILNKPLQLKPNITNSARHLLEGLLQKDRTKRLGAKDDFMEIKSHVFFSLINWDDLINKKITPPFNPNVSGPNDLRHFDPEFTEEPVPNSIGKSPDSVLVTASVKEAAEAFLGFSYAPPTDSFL
Sequence of Mitogen-activated protein kinase 8 (Homo sapiens, UniProt P45983) (P45983 whole entry): as the sequence (P45983 whole entry M108G) above, with G108M counted along it

As to `COC[C@H]1OC(=O)c2coc3c2[C@@]1(C)C1=C(C3=O)[C@@H]2CCC(=O)[C@@]2(C)C[C@H]1OC(C)=O` [WORTMANNIN], the IC50 in [1] was 5000 nM (antagonist).

In the case of `CN(C)S(=O)(=O)c1ccc2c(c1)/C(=C/c1cc3c([nH]1)CCCC3)C(=O)N2`, the IC50 was 150 nM (antagonist) in test [2]; 100 nM (antagonist) in test [3]; 110 nM (antagonist) in test [4]; 19 nM (antagonist) on Aurora kinase B; 110 nM (antagonist) in test [5]; 100 nM (antagonist) in test [6]. Besides, the IC50 at Aurora kinase C is recorded as 17 nM (antagonist).

As to `CC(C)(C)n1nc(Cc2cccc3ccccc23)c2c(N)ncnc21`, the IC50 in test [7] is on record as 250 nM (antagonist); in [2], 460 nM (antagonist); in test [8], 130 nM (antagonist); in test [10], 250 nM (antagonist); in [11], 140 nM (antagonist); in test [12], 500 nM (antagonist). Besides, the IC50 in [13] was 510 nM (antagonist). In addition, the Activity in test [9] was 5%; in test [14] it was 43%; in test [15], 14%; in [16] it was 6%.

`Oc1cccc(-c2nc(N3CCOCC3)c3oc4ncccc4c3n2)c1`: the Activity entry with HEK293 [17] is “Antagonist”. The outcome with HEK293 [18] and with HEK293 [19] was inactive.

For the compound `O=c1cc(N2CCOCC2)oc2c(-c3ccccc3)cccc12` [LY-294002], the half-maximal inhibitory concentration (IC50) is 1400 nM (antagonist) in test [20] and 2000 nM (antagonist) in test [21].

Consider `CC(C)(C)n1nc(-c2cccc3ccccc23)c2c(N)ncnc21`, for which the half-maximal inhibitory concentration (IC50) was 660 nM (antagonist) in [2]; 120 nM (antagonist) in test [8]; 340 nM (antagonist) in test [3]; 270 nM (antagonist) in [10]; 620 nM (antagonist) in [11].

For `O=C1Nc2ccc(I)cc2C1=Cc1cc(Br)c(O)c(Br)c1` [GW305074X], the IC50 is reported as 170 nM (antagonist) in [22], 70 nM (antagonist) in test [23] and 100 nM (antagonist) in test [20]. Besides, the results for the Activity in [14] and in test [15] were 32% and 35%, respectively.

Regarding `NC(=O)c1ccc(-c2nc(-c3ccc4c(c3)OCCO4)c(-c3ccccn3)[nH]2)cc1`, the IC50 is 9100 nM (antagonist) in test [7] and 5800 nM (antagonist) in test [24].

Take `O=C(O)c1ccc2c3c1cccc3c(=O)n1c3ccccc3nc21`: the concentration for half-maximal inhibition (IC50) in test [25] is 83 nM (antagonist); in test [4] it was 160 nM (antagonist); at Casein kinase II it was 190 nM (antagonist); in test [23], 110 nM (antagonist); in test [26], 950 nM (antagonist).

On to `N#C/C(=C1/Nc2ccccc2S1)c1ccnc(NCCc2cccnc2)n1`, for which the IC50 in test [27] is 2600 nM (antagonist); in test [28], 30 nM (antagonist); in [22] it was 80 nM (antagonist); in [26], 300 nM (antagonist); in [29] it was 40 nM (antagonist); in test [30] it was 5000 nM (antagonist).

`Nc1ncnc2[nH]nc(Nc3ccc(F)cc3)c12`: the IC50 is 3200 nM (antagonist) in test [31]; 2500 nM (antagonist) in test [2]; 2500 nM (antagonist) on Aurora kinase B; 2700 nM (antagonist) in test [32]; 510 nM (antagonist) in test [33].
